# Measurements as given in PMC9524151, “Peptides derived from hookworm anti-inflammatory proteins suppress inducible colitis in mice and inflammatory cytokine production by human cells” (Frontiers in Medicine, 2022).
# Ends that are not written are not given here.
# How the values were obtained:
# in vitro = details: male, human, human serum
# [1] = 100% human serum, 37°C, RP-HPLC at 214 nm, triplicate; for relative rate of degradation in human serum over 24 h: 0, 3, 8, 24 h
# TNBS-induced colitis = experiment: TNBS colitis model, oral administration; details: oral 5 mg/kg; compared with vehicle treated mice
Compound,"remaining at 4 h, 20 μM (in vitro) [%]",relative rate of degradation in human serum over 24 h [1],also measured
PSKEKADLGKYKA [AIP1-13],< 10,–,–
TPEEHPLLMDLMGDPKKAEE [AIP2-20D6P],–,degraded slower than AIP1-13 and ES2-10 but was less stable than AIP2-20,–
SQKEKDLLKE [ES2-10],< 10,–,–
TPEEHDLLMDLMGDPKKAEE [AIP2-20],–,degraded slower than AIP1-13 and ES2-10,"detection of peptide in human serum after 24 h [1]: could still be detected after 24 h; remaining at 8 h, 20 μM (in vitro): > 50%"
O=C(O)c1cc(/N=N/c2ccc(S(=O)(=O)Nc3ccccn3)cc2)ccc1O [sulfasalazine],–,–,colon length after oral administration (TNBS-induced colitis): Neither ES2-10 nor sulfasalazine were distinct from the vehicle treated mice
